Numbers after ± are expanded uncertainties.
Legend:
[1] = Molar enthalpy of transition or fusion; details: Crystal; DSC
[2] = Crystal; DTA

Molar enthalpy of transition or fusion [1] [kJ/mol] | Normal melting temperature [2] [°C] | Compound
34.1 ± 0.9 | -4.91 ± 0.58 | CCCCC/C=C\C/C=C\CCCCCCCC(=O)O [(Z,Z)-9,12-octadecadienoic acid]
44.9 ± 1.7 | 54.53 ± 0.84 | CCCCCCCCCCCCCC(=O)O [tetradecanoic acid]
64.2 ± 2.3 | 70.83 ± 0.61 | CCCCCCCCCCCCCCCCCC(=O)O [octadecanoic acid]

Reference: the NIST ThermoML archive (doi:10.1016/j.fluid.2016.01.011)
